The values that follow come from patent US8227513B2, “Food composition for binding acetaldehyde in mouth and in digestive track, and method for the preparation of the composition” (Biohit Oyj, priority 2005, dated 2012).

This assay in a line: capability of cysteine to bind acetaldehyde from beers and yoghurts (gas chromatograph). Conditions: for acetaldehyde concentration after the treatment: incubated 5 min at room temperature. The protocol: In the test, the capability of cysteine to bind acetaldehyde from light alcohol drinks and milk products, such as yoghurt, was examined. The amounts of acetaldehyde in four Finnish yoghurts and three beers were measured by means of a standardized method (Homann et al. 1997. High acetaldehyde levels in saliva after ethanol consumption: Methodological aspects and pathogenic implications. Carcinogenesis 18:1739-1743). The average acetaldehyde concentration (±SEM) in the beers was 146±30 μM. L-cysteine was added to the beers so that the final cysteine concentration of the product was 0 (the control), 0.1, 3 and 10 mM (i.e., 0 mg/l, 12.1 mg/l, 363 mg/l and 1210 mg/l); thereafter, the beers were incubated for 5 min at room temperature. Thereafter, the acetaldehyde contents were measured by means of a gas chromatograph. The acetaldehyde concentrations after the treatment were 146±30 μM, 133±32 μM, 26±9 μM and 10±3 μM, correspondingly. In the yoghurt, the acetaldehyde concentrations were 419±53 μM, on an average. L-cysteine was added so that the cysteine concentrations in the final product were 0 (the control), 0.1, 3 and 10 mM (i.e., 0 mg/l, 12.1 mg/l, 363 mg/l, and 1210 mg/l); thereafter, the yoghurts were incubated for 5 min at room temperature. The acetaldehyde concentrations after the treatment were 419±53 μM, 240±42 μM, 55±15 μM, and 15±2 μM.

Regarding `N[C@@H](CS)C(=O)O` [L-cysteine], the “acetaldehyde concentration after the treatment” value is, setting by setting: (beers (control 146±30 μM), final cysteine concentration 0.1 mM (12.1 mg/l), mean ±SEM) 133 ± 32 µM; (beers (control 146±30 μM), final cysteine concentration 3 mM (363 mg/l), mean ±SEM) 26 ± 9 µM; (beers (control 146±30 μM), final cysteine concentration 10 mM (1210 mg/l), mean ±SEM) 10 ± 3 µM; (yoghurts (control 419±53 μM), cysteine concentration 0.1 mM (12.1 mg/l)) 240 ± 42 µM; (yoghurts (control 419±53 μM), cysteine concentration 3 mM (363 mg/l)) 55 ± 15 µM; (yoghurts (control 419±53 μM), cysteine concentration 10 mM (1210 mg/l)) 15 ± 2 µM. Also, for the setting “the products (beers and yoghurts), 3 mM of cysteine (363 mg/l)”, the “acetaldehyde in the products eliminated” value is given as “over 80%”.
